The values that follow come from DBAASP.

What all share (experiment): ≥ marks a high value that may be exact or a test limit, other limits are often not marked, values filed in µg/mL are converted to µM
In assay [1] the test system is Aeromonas salmonicida RFAS1.
The subject of assay [2] is Edwardsiella tarda FP4130.
The subject of assay [3] is Streptococcus iniae FP5228.
For assay [4], the system named is Vibrio alginolyticus KCCM 2928.
The subject of assay [5] is Vibrio harveyi ATCC 14126.
Assay [6] relates to Vibrio ordalii KCCM 41669.
Assay [7] has as its system Aspergillus niger CECT 2694.
In assay [8] the test system is Erwinia amylovora PMV 6076.
Assay [9] deals with Fusarium oxysporum f. sp. lycopersici ATCC 201829.
Assay [10] concerns Penicillium expansum EPS 26.
Assay [11] has as its system Pseudomonas syringae EPS 94.
In assay [12] the test system is Rhizopus stolonifer CECT 2344.
Assay [13] deals with Xanthomonas vesicatoria 2133-2.
The test system of assay [14] is Bacillus cereus.
The test system of assay [15] is Candida albicans MTCC 227.
For assay [16], the system named is Escherichia coli DH5alpha.
The subject of assay [17] is Fusarium solani MTCC 10158.
The test system of assay [18] is Salmonella enterica subsp. enterica serovar Typhi.
The subject of assay [19] is Staphylococcus aureus ATCC 43300.
Assay [20] concerns Vibrio cholerae.
Assay [21] has as its system Xanthomonas axonopodis ITCC BD00029.
Assay [22] has as its system Xanthomonas oryzae ITCC BB00026.
The subject of assay [23] is Edwardsiella tarda.
For assay [24], the system named is Escherichia coli JM109.
The test system of assay [25] is Vibrio campbellii KCCM 40684.
Assay [26] relates to Vibrio vulnificus KCTC 2982.
For assay [27], the system named is Aspergillus flavus KCTC 9471.
Assay [28] concerns Aspergillus fumigatus KCTC 6145.
Assay [29] has as its system Bacillus subtilis.
For assay [30], the system named is Botrytis cinerea.
The test system of assay [31] is Candida albicans KCTC 7270.
Assay [32] has as its system Escherichia coli O157:H7 ATCC 43895.
The subject of assay [33] is Escherichia coli.
The test system of assay [34] is Fusarium verticillioides.
Assay [35] concerns Listeria monocytogenes KCTC 3710.
In assay [36] the test system is Proteus vulgaris.
Assay [37] concerns Pseudomonas aeruginosa.
Assay [38] deals with Saccharomyces cerevisiae.
The test system of assay [39] is Salmonella typhimurium.
Assay [40] has as its system Staphylococcus aureus.
Assay [41] relates to Staphylococcus epidermidis.
The subject of assay [42] is Trichosporon beigelii.
Assay [43] has as its system Staphylococcus aureus 5118.
Assay [44] concerns Staphylococcus aureus ATCC 9144.
The test system of assay [45] is Staphylococcus aureus E4049.

Converted amounts (≈) assume the structure as drawn.

For the compound `CC(C)C[C@H](NC(=O)[C@H](CCCN=C(N)N)NC(=O)CNC(=O)[C@H](Cc1ccccc1)NC(=O)[C@@H](N)Cc1ccccc1)C(=O)N[C@@H](CCCCN)C(=O)N[C@@H](C)C(=O)N[C@H](C(=O)N[C@@H](Cc1ccccc1)C(=O)N[C@@H](CCCN=C(N)N)C(=O)NCC(=O)N[C@@H](C)C(=O)N[C@@H](CCCN=C(N)N)C(=O)N[C@@H](CCC(N)=O)C(=O)NCC(=O)N[C@@H](Cc1c[nH]c2ccccc12)C(=O)N[C@@H](CCCCN)C(=O)N[C@@H](CCC(=O)O)C(=O)N[C@@H](Cc1cnc[nH]1)C(=O)N[C@@H](CCCN=C(N)N)C(=O)N[C@@H](Cc1ccc(O)cc1)C(=O)O)C(C)C` [FFGRLKAVFRGARQGWKEHRY], the minimum inhibitory concentration (MIC) (usually the smallest concentration in the dilution series that meets the test's criterion for growth inhibition) in [1] is 7.8 µM (≈ 20.4 µg/mL); in assay [2] it was 15.6 µM (≈ 40.7 µg/mL); in assay [3], 7.8 µM (≈ 20.4 µg/mL); in [4], 0.5 µM (≈ 1.31 µg/mL); in assay [5], 0.5 µM (≈ 1.31 µg/mL); in assay [6], 15.6 µM (≈ 40.7 µg/mL).
Take `CC[C@H](C)[C@H](NC(=O)[C@H](CCCCN)NC(=O)[C@H](CCCCN)NC(=O)[C@H](Cc1ccccc1)NC(=O)[C@H](CC(C)C)NC(=O)[C@H](CCCCN)NC(=O)[C@@H](N)Cc1c[nH]c2ccccc12)C(=O)N[C@@H](CC(C)C)C(=O)N[C@@H](CCCCN)C(=O)N[C@@H](Cc1ccc(O)cc1)C(=O)N[C@@H](CC(C)C)C(N)=O` [WKLFKKILKYL]: the MIC in assay [7] is 17.3 µM (≈ 25.6 µg/mL); in assay [8], 3.16 µM (≈ 4.68 µg/mL); in [9] it was 0.849 µM (≈ 1.25 µg/mL); in [10] it was 22.4 µM (≈ 33.1 µg/mL); in assay [11], 3.16 µM (≈ 4.68 µg/mL); in [12], no less than 35.4 µM. In [13], this compound gave an MIC of 3.16 µM (≈ 4.68 µg/mL).
As for `NCCCC[C@H](NC(=O)[C@H](CCCCN)NC(=O)[C@H](CS)NC(=O)[C@@H]1CSSC[C@H](N)C(=O)N[C@@H](CCCN=C(N)N)C(=O)N[C@@H](Cc2c[nH]c3ccccc23)C(=O)N[C@@H](CCCN=C(N)N)C(=O)N[C@@H](Cc2c[nH]c3ccccc23)C(=O)N[C@@H](CCCCN)C(=O)N1)C(=O)O` [CRWRWKCCKK], the MIC in [14] was 10 µM (≈ 13.9 µg/mL); in assay [15], no less than 40 µM; in [16], 20 µM (≈ 27.9 µg/mL); in [17], 20 µM (≈ 27.9 µg/mL); in assay [18], 10 µM (≈ 13.9 µg/mL); in assay [19], 10 µM (≈ 13.9 µg/mL). Further, the minimal inhibitory concentration (MIC) amounted to 20 µM (≈ 27.9 µg/mL) in assay [20], 5 µM (≈ 6.97 µg/mL) in assay [21] and 10 µM (≈ 13.9 µg/mL) in assay [22].
On to `CC[C@H](C)[C@H](NC(=O)[C@H](CC(C)C)NC(=O)[C@H](CCCN=C(N)N)NC(=O)[C@H](Cc1cnc[nH]1)NC(=O)[C@@H](NC(=O)[C@@H](NC(=O)[C@H](CCCCN)NC(=O)CNC(=O)[C@@H](NC(=O)CNC(=O)[C@@H](NC(=O)[C@H](CC(C)C)NC(=O)CNC(=O)[C@H](CC(N)=O)NC(=O)[C@H](Cc1ccccc1)NC(=O)[C@@H](NC(=O)[C@H](Cc1cnc[nH]1)NC(=O)[C@H](Cc1cnc[nH]1)NC(=O)[C@H](Cc1ccccc1)NC(=O)[C@@H](N)Cc1ccccc1)[C@@H](C)CC)C(C)C)C(C)C)[C@@H](C)O)[C@@H](C)CC)C(=O)O` [FFHHIFNGLVGVGKTIHRLI], for which the minimal inhibitory concentration (MIC) in [23] amounted to 11 µM (≈ 25.4 µg/mL); in assay [24], 2.72 µM (≈ 6.28 µg/mL); in assay [3], 1.9 µM (≈ 4.38 µg/mL); in [4], 0.9 µM (≈ 2.08 µg/mL); in assay [25], 0.9 µM (≈ 2.08 µg/mL); in assay [5], 0.9 µM (≈ 2.08 µg/mL). Besides, the MIC is no less than 1000 µM in assay [6] and 2.72 µM (≈ 6.28 µg/mL) in assay [26].
For the compound `CC[C@H](C)[C@H](NC(=O)[C@H](CCCCN)NC(=O)[C@H](CO)NC(=O)[C@H](Cc1ccccc1)NC(=O)[C@H](CO)NC(=O)[C@H](CCCCN)NC(=O)[C@H](CCC(=O)O)NC(=O)[C@H](CC(C)C)NC(=O)[C@H](CCCN=C(N)N)NC(=O)[C@H](CCCCN)NC(=O)[C@H](Cc1ccccc1)NC(=O)[C@@H](NC(=O)[C@H](CCCCN)NC(=O)[C@H](CCCCN)NC(=O)[C@H](C)N)C(C)C)C(=O)N[C@@H](CCC(N)=O)C(=O)N[C@@H](CC(N)=O)C(=O)N[C@@H](CC(=O)O)C(=O)N[C@@H](CCCCN)C(N)=O` [AKKVFKRLEKSFSKIQNDK], the MIC was no less than 50 µM in assay [27]; no less than 50 µM in assay [28]; 6.25 µM (≈ 14.3 µg/mL) in assay [29]; no less than 50 µM in assay [30]; 25 µM (≈ 57.3 µg/mL) in assay [31]; 12.5 µM (≈ 28.7 µg/mL) in [32]. Also, the MIC was 12.5 µM (≈ 28.7 µg/mL) in assay [33]; no less than 50 µM in [34]; 12.5 µM (≈ 28.7 µg/mL) in assay [35]; 12.5 µM (≈ 28.7 µg/mL) in assay [36]; 12.5 µM (≈ 28.7 µg/mL) in assay [37]; 25 µM (≈ 57.3 µg/mL) in assay [38]. The MIC in assay [39] was 12.5 µM (≈ 28.7 µg/mL); in [40], greater than 12.5 µM; in [41], 12.5 µM (≈ 28.7 µg/mL); in assay [42] it was 12.5 µM (≈ 28.7 µg/mL).
Regarding `CSCC[C@H](NC(=O)[C@@H](NC(=O)[C@H](Cc1ccccc1)NC(=O)[C@H](CC(C)C)NC(=O)[C@H](CC(C)C)NC(=O)[C@@H](NC(=O)[C@H](C)NC(=O)[C@@H](N)CC(C)C)[C@@H](C)O)[C@@H](C)O)C(=O)N[C@@H](CS)C(=O)N[C@@H](CC(C)C)C(=O)N[C@@H](CC(N)=O)C(=O)N[C@@H](Cc1ccccc1)C(=O)N[C@@H](CS)C(=O)NCC(=O)N[C@H](C(=O)N[C@@H](CC(C)C)C(=O)N[C@@H](C)C(=O)NCC(=O)N[C@@H](CC(=O)O)C(=O)N[C@@H](CC(=O)O)C(=O)O)C(C)C` [LATLLFTMCLNFCGVLAGDD], the MIC was 3.78 µM (≈ 8 µg/mL) in assay [43], no less than 125 µM in assay [44] and 15.6 µM (≈ 33 µg/mL) in [45].
